Laboratory results as given in US11780927B2, “Anti-CD40 antibodies for use in prevention of graft rejection” (NOVARTIS AG, priority 2018, dated 2023).

Legend:
[1] = test system: transplanted kidney grafts; assay: Allograft biopsies scored by Chronic Allograft Damage Index (CADI); type: in vivo, human
Text: The quality of the graft was estimated using the Chronic Allograph Damage Index (CADI) (Isoniemi et al. 1992 and 1994), where scores of ≤1 reflects normal renal histology and higher scores correlate with poor long-term outcome (Hayry et al. 2004, Yilmaz et al. 2007, Yilmaz et al. 2003). Pristine renal histology was found in 3 of 5 patients on iscalimab (60%) and in none of the 7 treated with tacrolimus (0%). The average CADI was 1.60±0.60 for CFZ533 (n=5) vs. 5.14±0.80 for tacrolimus (n=7), (mean±SEM, p<0.01 using Student t)
A PoC Study in de Novo Renal Transplantation (CCFZ533X2101/NCT02217410) using CFZ533 was performed. […] Allograft biopsies were performed on a subset of study patients. A pathologist, blinded to therapy, reviewed and scored all biopsy slides using the established Banff criteria and calculated the chronic allograft damage index (CADI, Nickerson P et al., Legendre C et al., Seron D et al.,). A CADI of 1 or less was considered as ‘normal renal histology’. Two patients were excluded from the analysis, since they switched therapy after only 2 months. […] The average CADI at final biopsy was 1.6±0.6 for CFZ533 and 5.1±0.8 for tacrolimus, p<0.01.

[2] = test system: RAJI B cells; assay: Complement-dependent cytotoxicity with rabbit complement; type: cell-based; conditions: 2 hours
Experimental: See supplementary material for detailed methods. Briefly, the ability of CFZ533 to mediated depletion of CD20^pos B cells was monitored in human whole blood over a period of three days in comparison to the B cell depleting antibody Rituximab. For CDC, CFZ533 or Rituximab were incubated with RAJI B cells in the presence or absence of rabbit complement and cell lysis was assessed by luminescence.
B cells numbers were determined based on CD45pos and CD19pos events falling within lymphocyte FSC (forward-scattered light)/SSC (side-scattered light) gate. Results for individual antibody concentrations were calculated as percent remaining B cells with reference to untreated samples and graphed as a function of log-transformed antibody concentration (adjusted to 100% and shown as a dotted line). Data represent the mean and SD of eight independent donors. […] Concentration dependent killing of the Raji cells was analyzed after 2 hours, where the viability of the cells was measured by determination of the ATP concentration in each well using luciferase. Results are presented as isotype-control normalized relative luciferase units (RLU) as a function of log-transformed antibody concentration.

## CFZ533: human anti-CD40 IgG1 monoclonal antibody with Fc-silencing N297A mutation; heavy chain SEQ ID NO: 9, light chain SEQ ID NO: 10
[1]; final biopsy
  average CADI (mean±SEM): 1.6±0.6
[1]; treated for up to 25 months
  patients with normal (pristine) renal histology, CADI of 1 or less: 60%
[2]
  Complement-dependent cytotoxicity (CDC) of Raji B cells: unable to mediate complement-dependent cytotoxicity
